Reference: patent US12391674B2, “Heterocyclic compounds for the treatment of epilepsy” (OTSUKA PHARMACEUTICAL CO., LTD., priority 2018, dated 2025)
Read-outs that look alike come from different tables or passages of the source.

Experiments:
[1] = test system: DBA/2 mice; assay: Audiogenic seizure model; assay type: in vivo; conditions: Mus musculus, read-out: Seizure suppression
In short: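 Male and female DBA/2 mice (3 weeks old, 8/group) dosed orally at 30 mg/kg in 5% gum arabic; 1 h later exposed to 12.6 kHz, 100-110 dB tone for 1 min or until tonic seizure. Maximum seizure score (0–4) recorded; suppression rate graded A (≥90%), B (70–<90%), C (50–<70%).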

[2] = test system: ICR mice; assay: Rotarod test (motor coordination); assay type: in vivo, mouse; conditions: oral, rotarod 1 hour after administration
Method: This test is performed to evaluate the effect of the compound on the motor coordination. In this test example, the example compounds shown in Table 4 below were used as test compounds. Male ICR mice (Japan SLC, Inc., 5-6 weeks, 8 per group) were trained to remain on a fixed speed (15 rpm) rotating rod of rotarod apparatus (Muromachi Kikai Co., Ltd.) for 2 minutes. […] After 1 hour of oral administration, the mice were again placed on the rod accelerated from 4 rpm to 40 rpm over 5 minutes and the latency to fall off the rod was recorded for 200 seconds. The falling latency of the compound administration group was calculated as a relative value relative to the average value of the falling latency in the solvent administration group. Here, a coordination disorder of 25% or less was expressed as “A”, and a coordination disorder of more than 25% and 50% or less was expressed as “B”.

[3] = DBA/2 mice, oral, auditory stimulation 1 hour after administration
[4] = DBA/2 mice, oral, dose 30 mg/kg, auditory stimulation 1 hour after administration

Nc1ccc(-c2cnc(Oc3cccc(C(F)(F)F)c3)nc2)nn1 [Example 40]
inhibition in vivo at 3 mg/kg [1, 3]: > 90% | Motor dysfunction ([2]; dose 3 mg/kg): A (a coordination disorder of 25% or less)

Nc1ccc(-c2cnc(Oc3cccc(OC(F)(F)F)c3)nc2)nn1 [Example 42]
inhibition in vivo at 5 mg/kg [1, 3]: > 90% | Motor dysfunction ([2]; dose 5 mg/kg): A (a coordination disorder of 25% or less)

Nc1cc(-c2cnc(Oc3ccccc3)nc2)ccn1 [Example 55]
inhibition in vivo at 30 mg/kg ([1]; po, 1 h): > 90% | Motor dysfunction ([2]; dose 30 mg/kg): A (a coordination disorder of 25% or less)

Nc1cncc(-c2cnc(Oc3ccccc3)nc2)c1 [Example 58]
inhibition in vivo at 30 mg/kg [1, 4]: > 90% | Motor dysfunction ([2]; dose 30 mg/kg): A (a coordination disorder of 25% or less)

Cc1nc(N)ccc1-c1cnc(Oc2ccccc2)nc1 [Example 59]
inhibition in vivo at 3 mg/kg [1, 3]: > 90% | Motor dysfunction ([2]; dose 3 mg/kg): A (a coordination disorder of 25% or less)

Cc1ccc(-c2cnc(Oc3ccccc3)nc2)c(N)n1 [Example 64]
inhibition in vivo at 3 mg/kg [1, 3]: > 90% | Motor dysfunction ([2]; dose 3 mg/kg): A (a coordination disorder of 25% or less)

Nc1ccc(-c2cnc(Oc3ccccc3)nc2)c(N)n1 [Example 66]
inhibition in vivo at 30 mg/kg [1, 4]: > 90% | Motor dysfunction ([2]; dose 30 mg/kg): A (a coordination disorder of 25% or less)

COc1ccc(-c2cnc(Oc3cccnc3)nc2)nn1 [Example 74]
inhibition in vivo at 5 mg/kg [1, 3]: > 90% | Motor dysfunction ([2]; dose 5 mg/kg): A (a coordination disorder of 25% or less)

Nc1ccc(-c2cnc(Oc3cccnc3)nc2)cn1 [Example 90]
inhibition in vivo at 5 mg/kg [1, 3]: 70 to 90% | Motor dysfunction ([2]; dose 5 mg/kg): A (a coordination disorder of 25% or less)

O=c1ccc(-c2cnc(Oc3ccccc3)nc2)n[nH]1 [Example 91, 6-(2-Phenoxypyrimidin-5-Yl)Pyridazin-3 (2H)-One]
inhibition in vivo at 5 mg/kg [1, 3]: > 90% | Motor dysfunction ([2]; dose 5 mg/kg): A (a coordination disorder of 25% or less)

O=C1CCC(c2cnc(Oc3ccccc3)nc2)=NN1 [Example 92, 6-(2-Phenoxypyrimidin-5-Yl)-4,5-Dihydropyridazin-3 (2H)-One]
inhibition in vivo at 5 mg/kg [1, 3]: > 90% | Motor dysfunction ([2]; dose 5 mg/kg): A (a coordination disorder of 25% or less)

O=c1ccc(-c2cnc(Oc3cccc(F)c3)nc2)n[nH]1 [Example 93]
inhibition in vivo at 30 mg/kg [1, 4]: > 90% | Motor dysfunction ([2]; dose 30 mg/kg): A (a coordination disorder of 25% or less)

O=c1ccc(-c2cnc(Oc3ccccc3F)nc2)n[nH]1 [Example 95]
inhibition in vivo at 3 mg/kg [1, 3]: > 90% | Motor dysfunction ([2]; dose 10 mg/kg): A (a coordination disorder of 25% or less)

O=c1ccc(-c2cnc(Oc3ccc(F)cc3)nc2)n[nH]1 [Example 97]
inhibition in vivo at 3 mg/kg [1, 3]: > 90% | Motor dysfunction ([2]; dose 3 mg/kg): A (a coordination disorder of 25% or less)

O=C1CCC(c2cnc(Oc3ccc(F)cc3)nc2)=NN1 [Example 98]
inhibition in vivo at 3 mg/kg [1, 3]: > 90% | Motor dysfunction ([2]; dose 3 mg/kg): A (a coordination disorder of 25% or less)

O=c1ccc(-c2cnc(Oc3cccc(C(F)(F)F)c3)nc2)n[nH]1 [Example 99]
inhibition in vivo at 10 mg/kg [1, 3]: > 90% | Motor dysfunction ([2]; dose 10 mg/kg): A (a coordination disorder of 25% or less)

O=c1ccc(-c2cnc(Oc3c(F)cccc3F)nc2)n[nH]1 [Example 101]
inhibition in vivo at 3 mg/kg [1, 3]: > 90% | Motor dysfunction ([2]; dose 3 mg/kg): A (a coordination disorder of 25% or less)

O=c1ccc(-c2cnc(Oc3cc(F)cc(F)c3)nc2)n[nH]1 [Example 102]
inhibition in vivo at 10 mg/kg [1, 3]: > 90% | Motor dysfunction ([2]; dose 10 mg/kg): A (a coordination disorder of 25% or less)

O=c1ccc(-c2cnc(Oc3ccccc3)nc2)c[nH]1 [Example 103]
inhibition in vivo at 30 mg/kg [1, 4]: > 90% | Motor dysfunction ([2]; dose 30 mg/kg): A (a coordination disorder of 25% or less)

O=c1[nH]cccc1-c1cnc(Oc2ccccc2)nc1 [Example 107]
inhibition in vivo at 30 mg/kg [1, 4]: > 90% | Motor dysfunction ([2]; dose 30 mg/kg): A (a coordination disorder of 25% or less)

O=c1ccc(-c2cnc(Oc3cccnc3)nc2)n[nH]1 [Example 113]
inhibition in vivo at 10 mg/kg [1, 3]: > 90% | Motor dysfunction ([2]; dose 10 mg/kg): A (a coordination disorder of 25% or less)

O=c1[nH]nccc1-c1cnc(Oc2ccccc2)nc1 [Example 114, 4-(2-Phenoxypyrimidin-5-Yl)Pyridazin-3 (2H)-One]
inhibition in vivo at 5 mg/kg [1, 3]: > 90% | Motor dysfunction ([2]; dose 5 mg/kg): A (a coordination disorder of 25% or less)

c1ccc(Oc2ncc(-c3ccnc4ccccc34)cn2)cc1 [Example 118, 4-(2-Phenoxypyrimidin-5-Yl) Quinoline]
inhibition in vivo at 5 mg/kg [1, 3]: 70 to 90% | Motor dysfunction ([2]; dose 5 mg/kg): A (a coordination disorder of 25% or less)
